Assays:
[1] = tested on: gastric corpus mucosa cells; test: MTT: Cell Damaging and Protecting Effect Test; type: cell-based, rabbit (male Japanese White); conditions: final concentration 10^-4 M, 4 hours; smaller value is better; 100 µM
acid secretion = test: VOL, TAO: Acid Secretion Inhibition Test In Vivo; set-up: species or system rat (male Crj:Donryu); conditions: rat; for TAO: total acid output inhibitory rate / VOL: gastric juice volume inhibitory rate: 100 mg/kg oral, histamine-stimulated, pylorus ligated; for gastric acid secretion inhibition effect (in words): in vivo
Method: VOL, TAO: Acid Secretion Inhibition Test In Vivo
Inhibitory effect on acid secretion in vivo is confirmed.
Male Crj:Donryu rats (7-week-old) were fasted overnight but allowed free access to water. In each group, 8 to 10 of these rats were used under urethane anesthesia (1.25 g/kg). The sample compound dissolved or suspended in an aqueous solution of 0.5% sodium carboxymethylcellulose or 0.05% Tween 80 was orally administered (100 mg/10 ml/kg). 30 minutes later, the abdomen of each was incised and the pylorus was ligated. 30 minutes after the ligation, 30 mg/kg of histamine dissolved in physiological saline were subcutaneously administered and, 3 hours thereafter, the rat was sacrificed with carbon dioxide. Immediately thereafter, each stomach was removed and the gastric contents were collected and each volume was determined. The total acid output was determined by titration of the gastric juice with 0.1N NaOH.
With respect to the gastric juice volume (VOL) and the total acid output (TAO), the effects obtained when 100 mg/kg of the sample compound had been administered were expressed as their respective inhibitory rates (%) as follows:
each inhibitory rate (%)=[1-(value in sample group/value in control group)]×100

mice = test: AT: Single Dose Toxicity Pretest; type: in vivo, mouse (male Slc:ICR)
Method: AT: Single Dose Toxicity Pretest
Male Slc:ICR mice (5-week-old) were used. Each group has 3 to 5 mice and each mouse was fasted, but allowed free access to water, for 4 to 5 hours from 9 a.m. in the test day. Then, 2,000 mg/10 ml/kg of the sample compound dissolved or suspended in an aqueous solution of 0.5% sodium carboxymethylcellulose were orally administered thereto. To a control, only the vehicle was administered. […] The body weight was measured before and after the fasting as well as at the same time everyday. The dead animals were immediately subjected to autopsy and their organs were observed macroscopically. Also, the living animals were sacrificed with ether or carbon dioxide one week after the administration and then their organs were observed macroscopically.
The toxicity at the single dose of 2,000 mg/kg of the sample compound was expressed as being classified into 5 levels.
5: Mortality rate is 0%; no toxicity is found at all both in behavior and organs.
4: Mortality rate is 0%; while no toxicity is found in organs, slight toxicity is observed in behavior and body weight increase.
3: While there is a dead animal (though not all the animals are dead), no toxicity is found in organs.
2: Regardless of whether there is a dead animal or not, toxicity is found in organs.
1: All the animals are dead.

[2] = Tests for Safety (PD, AT, MTT), overall statement
Source text: Based on the foregoing effect tests and safety tests, the anti-ulcer effect, antibacterial activity against HP, and safety of the example compounds of the present invention were studied.

Row | Structure (SMILES) | MTT: cell damaging rate [1] | TAO: total acid output inhibitory rate (acid secretion) | VOL: gastric juice volume inhibitory rate (acid secretion) | other results
1 | CC(C)CN1CCN(C(=O)c2ccc(OCc3ccc(F)cc3)cc2)CC1.Cl [Example 2, 1-[4-(4-fluorobenzyloxy)benzoyl]-4-isobutylpiperazine hydrochloride] | -6% |  |  | 
2 | CC(C)CN1CCN(C(=O)c2ccc(OCc3ccc(F)cc3)cc2)CC1 [Example 5, 1-[4-(4-fluorobenzyloxy)benzoyl]-4-isobutylpiperazine] | -84% |  |  | 
3 | CC(C)CN1CCN(C(=O)c2ccc(OCc3ccc(F)cc3)c([N+](=O)[O-])c2)CC1.Cl [Example 8, 1-[4-(4-fluorobenzyloxy)-3-nitrobenzoyl]-4-isobutylpiperazine hydrochloride] |  | 16% | 8% | 
4 | CC(C)Cc1cc(C(=O)N2CCN(CC(C)C)CC2)ccc1OCc1ccc([N+](=O)[O-])cc1.Cl [Example 13, 1-isobutyl-4-[3-isobutyl-4-(4-nitrobenzyloxy)benzoyl]piperazine hydrochloride] |  | 18% | 3% | 
5 | CC(C)Cc1cc(CC(=O)N2CCN(CC(C)C)CC2)ccc1OCc1ccccc1 [Example 15, 1-(4-benzyloxy-3-isobutylphenylacetyl)-4-isobutylpiperazine] |  |  |  | AT: toxicity at single dose, level (mice; mouse, 2,000 mg/kg oral, one week): 2
6 | CC(C)Cc1cc(C(=O)N2CCN(CC(C)C)CC2)ccc1OCc1ccccc1 [Example 16, 1-(4-benzyloxy-3-isobutylbenzoyl)-4-isobutylpiperazine] |  |  |  | AT: toxicity at single dose, level (mice; mouse, in vivo): 2
7 | CC(C)Cc1cc(C(=O)N2CCN(CC(C)C)CC2)ccc1OCc1ccc(Cl)cc1 [Example 17, 1-[4-(4-chlorobenzyloxy)-3-isobutylbenzoyl]-4-isobutylpiperazine] |  |  |  | AT: toxicity at single dose, level (mice; mouse, in vivo): 2
8 | CC(C)Cc1cc(C(=O)N2CCN(CC(C)C)CC2)ccc1OCc1ccccc1F [Example 18, 1-[4-(2-fluorobenzyloxy)-3-isobutylbenzoyl]-4-isobutylpiperazine] | -33% |  |  | 
9 | CC(C)Cc1cc(C(=O)N2CCN(CC(C)C)CC2)ccc1OCc1ccccc1F.Cl [Example 19, 1-[4-(2-fluorobenzyloxy)-3-isobutylbenzoyl]-4-isobutylpiperazine hydrochloride] | -55% | 42% | 6% | 
10 | CC(C)Cc1cc(CN2CCN(CC(C)C)CC2)ccc1OCc1ccc(F)cc1.Cl.Cl [Example 20, 1-[4-(4-fluorobenzyloxy)-3-isobutylbenzyl]-4-isobutylpiperazine dihydrochloride] |  | 43% | 12% | 
11 | CC(C)Cc1cc(C(=O)N2CCN(CC(C)C)CC2)ccc1OCc1ccc(F)cc1 [Example 21, 1-[4-(4-fluorobenzyloxy)-3-isobutylbenzoyl]-4-isobutylpiperazine] | -65% | 35% | 9% | gastric acid secretion inhibition effect (in words) (acid secretion): improved; safety (in words) [2]: great improvement in safety
12 | CC(C)Cc1cc(C(=O)N2CCN(CC(C)C)CC2)ccc1OCc1ccc(F)cc1.Cl [Example 22, 1-[4-(4-fluorobenzyloxy)-3-isobutylbenzoyl]-4-isobutylpiperazine hydrochloride] | -4% | 22% | 10% | gastric acid secretion inhibition effect (in words) (acid secretion): improved; safety (in words) [2]: great improvement in safety
13 | CC(C)Cc1cc(C(=O)N2CCN(CC(C)C)CC2)ccc1OCc1ccc(F)c(F)c1.Cl [Example 23, 1-[4-(3,4-difluorobenzyloxy)-3-isobutylbenzoyl]-4-isobutylpiperazine hydrochloride] |  | 9% | -9% | 
14 | CC(C)Cc1cc(C(=O)N2CCN(CC(C)C)CC2)ccc1OCc1ccc(F)cc1F.Cl [Example 24, 1-[4-(2,4-difluorobenzyloxy)-3-isobutylbenzoyl]-4-isobutylpiperazine hydrochloride] | -126% | 33% | 7% | 
15 | CC(C)Cc1cc(C(=O)N2CCN(CC(C)C)CC2)ccc1OCc1ccc(F)cc1.O=C(O)C(=O)O [Example 25, 1-[4-(4-fluorobenzyloxy)-3-isobutylbenzoyl]-4-isobutylpiperazine oxalate] | -28% | 47% | 19% | 
16 | CC(C)Cc1cc(C(=O)N2CCN(CC(C)C)CC2)ccc1OCc1ccc(F)c(F)c1 [Example 26, 1-[4-(3,4-difluorobenzyloxy)-3-isobutylbenzoyl]-4-isobutylpiperazine] | 29% |  |  | 
17 | CC(C)Cc1cc(C(=O)N2CCN(CC(C)C)CC2)ccc1OCc1ccc(F)cc1F [Example 27, 1-[4-(2,4-difluorobenzyloxy)-3-isobutylbenzoyl]-4-isobutylpiperazine] | -119% |  |  | 

From US5756505A, “N-acylpiperazine derivative, antibacterial drug and anti-ulcer drug” (Shiseido Co., Ltd., priority 1995, dated 1998)
